Data reported in patent US8193252B1, “Mesoprogestins (progesterone receptor modulators) for the treatment and prevention of benign hormone dependent gynecological disorders” (Bayer Pharma AG, priority 1999, dated 2012).

What was measured:
pregnant rats = experiment: Abortifacient activity in pregnant rats; type: in vivo, rat; conditions: s.c.; treatment days 5-7 of pregnancy, autopsy day 9; * SAS, probit procedure
Description: The guinea pig is considered as relevant model of human gestation and parturition (Elger W, Fähnrich M, Beier S, Quing S S, Chwalisz K (1987). Endometrial and myometrial effects of progesterone antagonists in pregnant guinea pigs. Am J Obstet Gynecol 157: 1065-1074; Elger W, Neef G, Beier S, Fähnrich M, Gründel M, Heermann J, Malmendier A, Laurent D, Puri C P, Singh M M, Hasan S H, Becker H (1992). Evaluation of antifertility activities of antigestagens in animal model. In: Puri C P and Van Look P F A (eds), Current Concepts in Fertility Regulation and Reproduction. Wiley Eastern Limited, New Delhi, pp. 303-328; Elger W, Faehnrich M, Beier S, Qing S S, Chwalisz K (1986). Mechanism of action of progesterone antagonists in pregnant guinea pigs. Contraception 6: 47-62; Elger W, Chwalisz K, Faehnrich M, Hasan S H, Laurent D, Beier S, Ottow E, Neef G, Garfield R E (1990). Studies on labor-conditioning and labor-inducing effects of antiprogesterones in animal model. In: Garfield R E (eds), Norwell, pp. 153-175.) The mechanism of abortion of antiprogestins in this species is the initiation of labor and finally the expulsion of the conceptus. Abortifacient effects in the rat during very early pregnancy reflect inhibitory effects on nidation rather than initiation of uterine contractions. Studies in the rat model lead to “overestimation” of the potential of antiprogestins to terminate pregnancy in humans. Conversely, in the guinea pig model, irrespective of the antiprogestin doses, there were high rates of ongoing pregnancies similar to the situation in humans (Elger et al., Current Concepts in Fertility Regulation and Reproduction cited above). Furthermore, in both humans and guinea pigs, there is a strong synergism between antiprogestins and prostaglandins with respect the induction of labor (see the articles cited above and Elger W, Beier S (1983). Prostaglandine and Antigestagene für den Schwangerschaftsabbruch (Prostaglandins and antigestagens for pregnancy termination). German Patent DE 3337450 12; Van Look P, Bygdeman M (1989). Antiprogestational steroids: a new dimension in human fertility regulation. Oxford reviews of reproductive medicine 11: 2-60).

[1] = target: T1, progesterone receptor (PR) (Oryctolagus cuniculus, UniProt P06186); experiment: McPhail test, PR agonistic (progestagenic) activity in estradiol-primed juvenile rabbits; type: in vivo, rabbit; conditions: for maximum progestagenic effect relative to progesterone: dose range 0.003-100 mg/rabbit s.c.
T1 construct: effects of PR-modulators in the uterus of estrogen primed immature rabbits (McPhail test); from tissue; host or cells: uterus (endometrium) of estradiol-primed juvenile rabbits, in vivo
T1 sequence (P06186 1-930): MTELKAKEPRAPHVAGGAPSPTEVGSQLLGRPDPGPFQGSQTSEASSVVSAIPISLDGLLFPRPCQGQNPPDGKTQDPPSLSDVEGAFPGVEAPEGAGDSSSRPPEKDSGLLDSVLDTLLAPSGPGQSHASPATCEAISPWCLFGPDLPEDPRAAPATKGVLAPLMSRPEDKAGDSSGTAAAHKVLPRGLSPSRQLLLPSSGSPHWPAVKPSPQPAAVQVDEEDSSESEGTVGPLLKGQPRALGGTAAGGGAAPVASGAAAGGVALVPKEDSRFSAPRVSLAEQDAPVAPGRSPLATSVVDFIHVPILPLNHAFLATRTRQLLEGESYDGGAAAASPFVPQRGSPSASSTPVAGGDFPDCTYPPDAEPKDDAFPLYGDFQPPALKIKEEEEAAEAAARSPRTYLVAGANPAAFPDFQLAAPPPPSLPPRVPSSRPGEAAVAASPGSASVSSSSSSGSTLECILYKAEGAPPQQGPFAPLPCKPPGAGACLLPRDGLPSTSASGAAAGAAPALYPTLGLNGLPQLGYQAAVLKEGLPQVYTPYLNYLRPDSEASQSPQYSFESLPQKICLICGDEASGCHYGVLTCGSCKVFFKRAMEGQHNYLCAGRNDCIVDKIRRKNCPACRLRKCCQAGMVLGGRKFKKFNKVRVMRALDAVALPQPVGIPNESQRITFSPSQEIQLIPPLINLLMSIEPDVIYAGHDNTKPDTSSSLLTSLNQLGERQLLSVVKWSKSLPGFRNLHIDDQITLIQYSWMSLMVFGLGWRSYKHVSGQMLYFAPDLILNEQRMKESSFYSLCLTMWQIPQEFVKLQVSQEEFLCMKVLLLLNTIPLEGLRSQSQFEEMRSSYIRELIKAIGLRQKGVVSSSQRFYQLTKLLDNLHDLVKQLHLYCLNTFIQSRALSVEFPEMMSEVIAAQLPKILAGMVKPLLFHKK
Description: In the classical bioassay, the McPhail test, assessing progestagenic and antiprogestagenic effects in rabbits (Selye H., Textbook of Endocrinology, 1947, pp. 345-346), progesterone produces a maximum McPhail score of 4 (by definition).
The PR antagonistic and agonistic properties of mesoprogestins were assessed in estrogen-primed rabbits in the McPhail test according to Selye (Textbook of Endocrinology, 1947, pp. 345-346).

GR = target: T2, GR (Homo sapiens, UniProt P04150); experiment: Relative binding activity (RBA) at GR, dexamethasone = 100%; conditions: by Kaufmann
T2 sequence (P04150 1-777): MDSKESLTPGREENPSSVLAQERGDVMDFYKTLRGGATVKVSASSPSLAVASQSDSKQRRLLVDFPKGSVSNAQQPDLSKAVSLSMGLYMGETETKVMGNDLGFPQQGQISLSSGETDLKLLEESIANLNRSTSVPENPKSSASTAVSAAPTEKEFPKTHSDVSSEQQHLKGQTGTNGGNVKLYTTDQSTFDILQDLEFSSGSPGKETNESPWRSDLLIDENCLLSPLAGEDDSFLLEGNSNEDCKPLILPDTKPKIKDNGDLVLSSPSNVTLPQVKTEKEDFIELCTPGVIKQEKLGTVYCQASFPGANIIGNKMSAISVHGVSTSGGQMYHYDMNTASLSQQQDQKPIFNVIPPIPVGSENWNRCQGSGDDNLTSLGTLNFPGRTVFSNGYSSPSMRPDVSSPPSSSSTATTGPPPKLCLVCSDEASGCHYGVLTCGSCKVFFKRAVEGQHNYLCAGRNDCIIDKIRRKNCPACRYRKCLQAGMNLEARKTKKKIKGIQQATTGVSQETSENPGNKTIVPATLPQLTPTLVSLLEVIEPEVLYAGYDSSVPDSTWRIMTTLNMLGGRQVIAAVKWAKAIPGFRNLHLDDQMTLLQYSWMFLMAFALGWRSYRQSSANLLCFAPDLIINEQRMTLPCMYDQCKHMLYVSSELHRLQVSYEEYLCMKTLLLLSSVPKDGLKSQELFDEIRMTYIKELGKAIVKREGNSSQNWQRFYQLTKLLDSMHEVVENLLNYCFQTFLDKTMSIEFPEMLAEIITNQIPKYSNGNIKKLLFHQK

[2] = 4 days s.c. treatment, absence of progesterone

Compound	abortifacient activity ED50, rat (pregnant rats)	maximum progestagenic effect relative to progesterone [1]	RBA (%) GR (GR) [%]	dose of maximum effect [1, 2]	maximum effect, McPhail score [1, 2] [McPhail score]	shape of dose response in McPhail test ([1]; absence of progesterone)
COC[C@]1(OC)CC[C@H]2[C@@H]3CCC4=CC(=O)CCC4=C3[C@@H](c3ccc(/C=N/O)cc3)C[C@@]21C [J867, 4-[17β-Methoxy-17α-(methoxymethyl)-3-oxoestra-4,9-dien-11β-yl]benzaldehyd-(1E)-oxim]	0.65* mg/animal/day	Neither mesoprogestin tested (J1042, J867, J956) reached the maximum effect of progesterone	78	–	–	–
CCNC(=O)O/N=C/c1ccc([C@H]2C[C@@]3(C)[C@@H](CC[C@]3(COC)OC)[C@@H]3CCC4=CC(=O)CCC4=C32)cc1 [J956, 4-[17β-Methoxy-17α-(methoxymethyl)-3-oxoestra-4,9-dien-11β-yl]benzaldehyd-(1E)-[O-(ethylamino)carbonyl]oxim]	0.64* mg/animal/day	Neither mesoprogestin tested (J1042, J867, J956) reached the maximum effect of progesterone	154	0.3-1 mg/rabbit	1.5	biphasic response
CCSC(=O)O/N=C/c1ccc([C@H]2C[C@@]3(C)[C@@H](CC[C@]3(COC)OC)[C@@H]3CCC4=CC(=O)CCC4=C32)cc1 [J1042, 4-[17β-Methoxy-17α-(methoxymethyl)-3-oxoestra-4,9-dien-11β-yl]benzaldehyd-(1E)-[O-(ethylthio)carbonyl]oxim]	>10 mg/animal/day	Neither mesoprogestin tested (J1042, J867, J956) reached the maximum effect of progesterone	42	–	–	–
